In patent US20110098296A1, “Thiazole And Oxazole Kinase Inhibitors” (priority 2007, published 2011):

Experiments:
SK-MEL-3 tumor cells = experiment: Method C: Cell Growth Inhibition Assay (CellTiter-Glo), SK-MEL-3; type: cell-based; settings: Homo sapiens, SK-MEL3, 72 h, 3 days, 4-parameter fit
How it was run: (§1)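 Plating at 500 cells/well is followed the next day by addition of compound as a 1:3 serial dilution series. After 3 days' incubation, CellTiter-Glo luminescence is read and IC50 is calculated versus DMSO wells.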

ErbB2 = molecular target: T1, ErbB2 (Homo sapiens, UniProt P04626); experiment: ErbB-2 substrate phosphorylation assay (HTRF); type: biochemical; settings: Method (A): Enzyme Mix incubated with compound at 20° C. for 1 hr, reaction started by adding Substrate Mix
T1 construct: made in house; host or cells: baculovirus expression system
How it was run: (§2)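 Baculovirus-expressed kinase (0.8 nM EGFR or 10 nM ErbB2 in enzyme mix) with Peptide C 0.8 μM and ATP 20 μM (substrate-mix levels), MOPS pH 7.5, MnCl2; 90 min, 20 °C, HTRF anti-phosphotyrosine. Method A adds 1 h enzyme–compound preincubation; B none. pIC50, final compound 0.00027–47.6 μM.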

BT474 tumor cells = experiment: Method C: Cell Growth Inhibition Assay (CellTiter-Glo), BT474; type: cell-based; settings: Homo sapiens, BT-474, 72 h, 3 days, 4-parameter fit
HT-29 tumor cells = experiment: Method C: Cell Growth Inhibition Assay (CellTiter-Glo), HT-29; type: cell-based; settings: Homo sapiens, HT-29, 72 h, 3 days, 4-parameter fit
How it was run: (§3)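 Luminescent ATP signal (CellTiter-Glo, after 30 min room-temperature equilibration) served as a surrogate for cell number after a 3-day compound exposure at 37° C. Cells were plated at 500/well and treated with serially diluted compound at 0.2% DMSO. IC50 values are 4-parameter fits against DMSO-treated wells.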

HN5 tumor cells = experiment: Method C: Cell Growth Inhibition Assay (CellTiter-Glo), HN5; type: cell-based; settings: Homo sapiens, 72 h, 3 days, 4-parameter fit
How it was run: as §3

EGFR = molecular target: T2, EGFR (Homo sapiens, UniProt P00533); experiment: EGFR substrate phosphorylation assay (HTRF); type: biochemical; settings: Method (A): Enzyme Mix incubated with compound at 20° C. for 1 hr, reaction started by adding Substrate Mix
T2 construct: made in house; host or cells: baculovirus expression system
How it was run: as §2

A375P F11s tumor cells = experiment: Method C: Cell Growth Inhibition Assay (CellTiter-Glo), A375P F11s; type: cell-based; settings: Homo sapiens, 72 h, 3 days, 4-parameter fit
How it was run: as §3

Colo205 tumor cells = experiment: Method C: Cell Growth Inhibition Assay (CellTiter-Glo), Colo205; type: cell-based; settings: Homo sapiens, COLO 205, 72 h, 3 days, 4-parameter fit
How it was run: as §1

SK-MEL-28 tumor cells = experiment: Method C: Cell Growth Inhibition Assay (CellTiter-Glo), SK-MEL-28; type: cell-based; settings: Homo sapiens, SK-MEL-28, 72 h, 3 days, 4-parameter fit
How it was run: as §3

T1 sequence (P04626 23-1255): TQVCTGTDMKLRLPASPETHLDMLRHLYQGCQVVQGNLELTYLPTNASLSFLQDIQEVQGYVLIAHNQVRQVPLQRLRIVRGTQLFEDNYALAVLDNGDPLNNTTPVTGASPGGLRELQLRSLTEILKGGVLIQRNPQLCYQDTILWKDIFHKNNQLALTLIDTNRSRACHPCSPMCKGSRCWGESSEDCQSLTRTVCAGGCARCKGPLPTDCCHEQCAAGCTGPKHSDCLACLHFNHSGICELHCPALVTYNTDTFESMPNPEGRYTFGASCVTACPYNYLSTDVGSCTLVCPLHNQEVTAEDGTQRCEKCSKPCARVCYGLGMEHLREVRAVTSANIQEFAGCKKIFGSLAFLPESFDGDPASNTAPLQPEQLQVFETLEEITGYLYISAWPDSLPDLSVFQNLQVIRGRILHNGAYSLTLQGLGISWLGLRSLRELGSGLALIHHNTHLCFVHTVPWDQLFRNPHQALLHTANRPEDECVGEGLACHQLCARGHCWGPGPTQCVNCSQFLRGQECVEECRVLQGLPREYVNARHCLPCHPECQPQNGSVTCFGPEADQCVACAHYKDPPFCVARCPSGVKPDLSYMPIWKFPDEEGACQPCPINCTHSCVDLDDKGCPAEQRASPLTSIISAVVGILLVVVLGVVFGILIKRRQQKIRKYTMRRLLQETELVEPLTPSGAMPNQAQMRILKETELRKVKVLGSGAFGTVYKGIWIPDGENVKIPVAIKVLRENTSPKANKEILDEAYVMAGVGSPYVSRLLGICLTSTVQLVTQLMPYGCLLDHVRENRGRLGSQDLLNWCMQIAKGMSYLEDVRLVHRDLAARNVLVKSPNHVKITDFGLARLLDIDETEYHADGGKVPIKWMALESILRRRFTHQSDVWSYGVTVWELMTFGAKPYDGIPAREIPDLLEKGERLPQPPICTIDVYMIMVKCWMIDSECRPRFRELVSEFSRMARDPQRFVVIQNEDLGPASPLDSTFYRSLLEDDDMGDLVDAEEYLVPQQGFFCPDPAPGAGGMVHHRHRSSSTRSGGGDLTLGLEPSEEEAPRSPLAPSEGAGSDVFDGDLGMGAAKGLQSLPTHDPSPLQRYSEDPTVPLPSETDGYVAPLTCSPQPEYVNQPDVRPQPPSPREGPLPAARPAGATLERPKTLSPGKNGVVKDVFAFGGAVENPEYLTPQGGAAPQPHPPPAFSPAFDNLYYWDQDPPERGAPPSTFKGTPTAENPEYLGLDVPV
T2 sequence (P00533 25-1210): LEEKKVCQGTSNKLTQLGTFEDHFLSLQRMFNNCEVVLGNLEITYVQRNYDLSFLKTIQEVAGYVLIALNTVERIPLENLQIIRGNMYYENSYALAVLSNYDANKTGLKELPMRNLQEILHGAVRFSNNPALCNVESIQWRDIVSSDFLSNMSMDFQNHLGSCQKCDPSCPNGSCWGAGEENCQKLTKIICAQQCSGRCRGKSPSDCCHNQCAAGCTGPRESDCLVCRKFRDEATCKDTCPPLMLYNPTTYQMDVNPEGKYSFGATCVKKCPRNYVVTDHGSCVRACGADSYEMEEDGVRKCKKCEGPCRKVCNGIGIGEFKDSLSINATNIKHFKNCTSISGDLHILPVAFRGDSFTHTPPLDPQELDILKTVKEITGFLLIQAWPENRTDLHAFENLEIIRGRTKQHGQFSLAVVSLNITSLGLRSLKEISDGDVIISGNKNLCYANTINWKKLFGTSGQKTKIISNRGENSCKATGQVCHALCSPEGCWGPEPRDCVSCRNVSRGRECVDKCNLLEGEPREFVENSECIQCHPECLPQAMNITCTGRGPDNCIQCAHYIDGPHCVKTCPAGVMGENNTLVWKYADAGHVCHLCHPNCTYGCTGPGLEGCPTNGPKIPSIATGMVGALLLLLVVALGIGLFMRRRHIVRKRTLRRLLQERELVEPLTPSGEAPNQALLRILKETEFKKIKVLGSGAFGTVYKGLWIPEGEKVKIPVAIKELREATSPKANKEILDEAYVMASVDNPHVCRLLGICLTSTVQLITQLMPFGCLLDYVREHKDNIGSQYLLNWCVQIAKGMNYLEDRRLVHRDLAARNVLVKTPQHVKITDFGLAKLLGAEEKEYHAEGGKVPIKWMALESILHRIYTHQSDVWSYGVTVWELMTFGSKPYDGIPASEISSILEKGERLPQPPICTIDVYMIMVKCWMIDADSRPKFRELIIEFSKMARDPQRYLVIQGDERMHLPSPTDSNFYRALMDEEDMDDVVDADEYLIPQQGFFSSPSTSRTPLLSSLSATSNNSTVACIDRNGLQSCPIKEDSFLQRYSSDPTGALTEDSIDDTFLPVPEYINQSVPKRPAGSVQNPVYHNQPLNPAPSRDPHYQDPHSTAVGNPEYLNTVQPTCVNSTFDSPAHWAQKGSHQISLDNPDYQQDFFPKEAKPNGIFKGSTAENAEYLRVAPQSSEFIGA

| Structure (SMILES) | IC50 (SK-MEL-3 tumor cells) | IC50 (ErbB2) | IC50 (BT474 tumor cells) | IC50 (HT-29 tumor cells) | IC50 (HN5 tumor cells) | IC50 (EGFR) | IC50 (A375P F11s tumor cells) | IC50 (Colo205 tumor cells) | IC50 (SK-MEL-28 tumor cells) |
| --- | --- | --- | --- | --- | --- | --- | --- | --- | --- |
| CS(=O)(=O)CCN1CCN(c2ccc(Nc3nccc(-c4scnc4-c4cccc(NC(=O)c5c(F)cccc5F)c4)n3)cc2F)CC1 [Example 80, 2,6-Difluoro-N-[3-(5-{2-[(3-fluoro-4-{4-[2-(methylsulfonyl)ethyl]-1-piperazinyl}phenyl)amino]-4-pyrimidinyl}-1,3-thiazol-4-yl)phenyl]benzamide] | 100 to 1000 nM | < 100 nM | < 100 nM | 100 to 1000 nM | < 100 nM | < 100 nM | 100 to 1000 nM | > 1000 nM | 100 to 1000 nM |
| CN(C)CCOc1cccc(Nc2nccc(-c3scnc3-c3cccc(NC(=O)Cc4cccs4)c3)n2)c1 [Example 84, N-[3-(5-{2-[(3-{[2-(Dimethylamino)ethyl]oxy}phenyl)amino]-4-pyrimidinyl}-1,3-thiazol-4-yl)phenyl]-2-(2-thienyl)acetamide] | > 1000 nM | < 100 nM | > 1000 nM | > 1000 nM | > 1000 nM | < 100 nM | > 1000 nM | > 1000 nM | > 1000 nM |
| CN(C)Cc1cccc(Nc2nccc(-c3scnc3-c3cccc(NC(=O)c4c(F)cccc4F)c3)n2)c1 [Example 90, N-(3-{5-[2-({3-[(Dimethylamino)methyl]-phenyl}amino)-4-pyrimidinyl]-1,3-thiazol-4-yl}phenyl)-2,6-difluorobenzamide-formic acid] | > 1000 nM | < 100 nM | < 100 nM | 100 to 1000 nM | 100 to 1000 nM | < 100 nM | 100 to 1000 nM | 100 to 1000 nM | > 1000 nM |
| COc1ccc(Nc2nccc(-c3scnc3-c3cccc(NC(=O)c4c(F)cccc4F)c3)n2)cc1N1CCN(C)CC1 [Example 93, 2,6-Difluoro-N-{3-[5-(2-{[4-(methyloxy)-3-(4-methyl-1-piperazinyl)phenyl]amino}-4-pyrimidinyl)-1,3-thiazol-4-yl]phenyl}benzamide] | 100 to 1000 nM | < 100 nM | < 100 nM | 100 to 1000 nM | < 100 nM | < 100 nM | 100 to 1000 nM | 100 to 1000 nM | 100 to 1000 nM |
| O=C(Nc1cccc(-c2ncsc2-c2ccnc(Nc3cccc(CN4CCCC4)c3)n2)c1)c1c(F)cccc1F [Example 94, 2,6-Difluoro-N-{3-[5-(2-{[3-(1-pyrrolidinylmethyl)phenyl]amino}-4-pyrimidinyl)-1,3-thiazol-4-yl]phenyl}benzamide] | 100 to 1000 nM | < 100 nM | < 100 nM | 100 to 1000 nM | < 100 nM | < 100 nM | > 1000 nM | 100 to 1000 nM | > 1000 nM |
| NS(=O)(=O)CCc1cccc(Nc2nccc(-c3scnc3-c3cccc(NC(=O)c4c(F)cccc4F)c3)n2)c1 [Example 95, N-(3-{5-[2-({3-[2-(Aminosulfonyl)ethyl]phenyl}amino)-4-pyrimidinyl]-1,3-thiazol-4-yl}phenyl)-2,6-difluorobenzamide] | > 1000 nM | < 100 nM | < 100 nM | 100 to 1000 nM | < 100 nM | < 100 nM | 100 to 1000 nM | > 1000 nM | > 1000 nM |
| Cc1nc(-c2cccc(NC(=O)c3c(F)cccc3F)c2)c(-c2ccnc(Nc3cccc(CN4CCCC4)c3)n2)s1 [Example 104, 2,6-Difluoro-N-{3-[2-methyl-5-(2-{[3-(1-pyrrolidinylmethyl)phenyl]amino}-4-pyrimidinyl)-1,3-thiazol-4-yl]phenyl}benzamide] | 100 to 1000 nM | < 100 nM | < 100 nM | 100 to 1000 nM | 100 to 1000 nM | < 100 nM | 100 to 1000 nM | 100 to 1000 nM | > 1000 nM |
